Measurements reported in PubChem BioAssay AID330 (DTP/NCI, 2004).
Values joined by “and” are separate entries in the source; they are usually repeats but may differ in a detail not shown here. Equal entries are not always repeated. Toxic doses and inconclusive results are not listed. The calls were made as follows: active = survival T/C of 150% or more; inactive = T/C below 125% in these data.

Tested on: P388 leukemia ip, CD2F1 mice, survival T/C
Assay: NCI In Vivo Anticancer Drug Screen. Data for tumor model P388 Leukemia (intraperitoneal) in CD2F1 (CDF1) mice
Conditions: endpoint: median survival time, higher = longer survival
Outline: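 Mice carrying the transplanted tumor received test compound or vehicle. Survival was recorded in each group, and the value is the treated-group measurement divided by that of the vehicle-treated control group.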

[1] = dose: 12.5 mg/kg/injection, schedule: Q01DX009 (ip), vehicle: saline
[2] = dose: 25.0 mg/kg/injection, schedule: Q01DX009 (ip), vehicle: saline
[3] = dose: 50.0 mg/kg/injection, schedule: Q01DX009 (ip), vehicle: saline
[4] = dose: 50.0 mg/kg/injection, schedule: Q01DX009 (ip), vehicle: saline with Tween-80
[5] = dose: 100.0 mg/kg/injection, schedule: Q01DX009 (ip), vehicle: saline with Tween-80
[6] = dose: 200.0 mg/kg/injection, schedule: Q01DX009 (ip), vehicle: saline with Tween-80
[7] = dose: 25.0 mg/kg/injection, schedule: Q01DX009 (ip), vehicle: saline with Tween-80
[8] = dose: 60.0 mg/kg/injection, schedule: Q01DX005 (ip), vehicle: saline with Tween-80
[9] = dose: 120.0 mg/kg/injection, schedule: Q01DX005 (ip), vehicle: saline with Tween-80
[10] = dose: 240.0 mg/kg/injection, schedule: Q01DX005 (ip), vehicle: saline with Tween-80
[11] = dose: 50.0 mg/kg/injection, schedule: Q01DX005 (ip), vehicle: saline with Tween-80
[12] = dose: 100.0 mg/kg/injection, schedule: Q01DX005 (ip), vehicle: saline with Tween-80
[13] = dose: 60.0 mg/kg/injection, schedule: Q01DX005 (ip), vehicle: saline
[14] = dose: 120.0 mg/kg/injection, schedule: Q01DX005 (ip), vehicle: saline
[15] = dose: 240.0 mg/kg/injection, schedule: Q01DX005 (ip), vehicle: saline
[16] = dose: 100.0 mg/kg/injection, schedule: Q01DX001 (ip), vehicle: Klucel (hydroxypropylcellulose) (HPC)
[17] = dose: 200.0 mg/kg/injection, schedule: Q01DX001 (ip), vehicle: Klucel (hydroxypropylcellulose) (HPC)

Measured: T/C

CCCCN(CCCC)CCNc1ccc(C)c2sc3ccccc3c(=O)c12
inactive: [1] 100 % of control | [2] 102 % of control | [3] 102 % of control | dose: 100.0 mg/kg/injection, schedule: Q01DX009 (ip), vehicle: saline 100 % of control

Cc1ccc(Nc2ccc(Nc3ccc(C)cc3)c3c2C(=O)c2cccc(O)c2C3=O)cc1
inactive: [4] 101 % of control | [5] 95 % of control | [6] 97 % of control

CC(C)CC(=O)CC1(C)CCC(c2ccoc2)O1 (configuration not stated)
inactive: [7] 102 % of control | [4] 101 % of control | [5] 107 % of control

O=C(Nc1ccc(Cl)cc1)Nc1nnc(/C=C/c2ccccc2)o1
inactive: [8] 96 % of control | [9] 96 % of control

CCCCC(CC)COC1CCS(=O)(=O)C1 (configuration not stated)
inactive: [4] 100 % of control | [5] 101 % of control | [6] 95 % of control

CC1=C(O)c2[nH]c(Cl)c(C=O)c2C(=O)C1=O
inactive: dose: 100.0 mg/kg/injection, schedule: Q01DX001 (ip), vehicle: saline with Tween-80 100 % of control | dose: 200.0 mg/kg/injection, schedule: Q01DX001 (ip), vehicle: saline with Tween-80 98 % of control | dose: 400.0 mg/kg/injection, schedule: Q01DX001 (ip), vehicle: saline with Tween-80 98 % of control

C[CH2][Pb]([CH2]C)([CH2]C)[N]1C(=O)c2ccccc2C1=O
inactive: dose: 1.56 mg/kg/injection, schedule: Q01DX009 (ip), vehicle: Klucel (hydroxypropylcellulose) (HPC) 110 % of control | dose: 3.12 mg/kg/injection, schedule: Q01DX009 (ip), vehicle: Klucel (hydroxypropylcellulose) (HPC) 118 % of control

CC(C)(C(N=Cc1ccccc1)c1ccccc1)[N+](=O)[O-] (configuration not stated)
inactive: [8] 100 % of control | [9] 98 % of control | [10] 99 % of control

C=C(C(=C)n1nnc(C(=O)OC)c1C(=O)OC)n1nnc(C(=O)OC)c1C(=O)OC
inactive: [8] 102 % of control | [9] 101 % of control | [10] 93 % of control

CSc1nc(N)c2cnn(C3OC(CO)C(O)C3O)c2n1 (configuration not stated)
inactive: [11] 100 % of control | [12] 109 % of control | dose: 200.0 mg/kg/injection, schedule: Q01DX005 (ip), vehicle: saline with Tween-80 100 % of control

CCOC(=O)N1C(C)CCCC1C (configuration not stated)
inactive: [13] 106 % of control | [14] 105 % of control | [15] 95 % of control

CCOc1nc(C(=O)O)cc2ccsc12
inactive: [16] 90 % of control | [17] 94 % of control | dose: 400.0 mg/kg/injection, schedule: Q01DX001 (ip), vehicle: Klucel (hydroxypropylcellulose) (HPC) 96 % of control

N#CCC(=O)N/N=C(\CC1(O)C(=O)Nc2c(Cl)cc(Cl)cc21)c1cccc2ccccc12 (configuration not stated)
inactive: dose: 12.5 mg/kg/injection, schedule: Q01DX005 (ip), vehicle: saline with Tween-80 90 % of control | dose: 25.0 mg/kg/injection, schedule: Q01DX005 (ip), vehicle: saline with Tween-80 89 % of control | [11] 88 % of control | [12] 88 % of control

CN(C)c1ccc(C2(c3ccc(N(C)C)cc3)c3ccccc3C(=O)N2N)cc1
inactive: [11] 86 % of control | [12] 86 % of control

COC/C(=N/Nc1ccc([N+](=O)[O-])cc1[N+](=O)[O-])c1ccccc1
inactive: dose: 100.0 mg/kg/injection, schedule: Q04DX003 (ip), vehicle: saline with Tween-80 109 % of control | dose: 200.0 mg/kg/injection, schedule: Q04DX003 (ip), vehicle: saline with Tween-80 109 % of control | dose: 400.0 mg/kg/injection, schedule: Q04DX003 (ip), vehicle: saline with Tween-80 90 % of control

CC(N)(CCS(=O)(=O)CP(=O)(O)O)C(=O)O (configuration not stated)
inactive: [13] 103 % of control | [14] 97 % of control | [15] 93 % of control

C/C=C/C[P+](CC)(c1ccccc1)c1ccccc1
inactive: dose: 0.78 mg/kg/injection, schedule: Q01DX009 (ip), vehicle: saline 103 % of control | dose: 1.56 mg/kg/injection, schedule: Q01DX009 (ip), vehicle: saline 97 % of control | dose: 3.13 mg/kg/injection, schedule: Q01DX009 (ip), vehicle: saline 112 % of control

CCCCCC1c2cc(O)ccc2OC1N1CCOCC1 (configuration not stated)
inactive: dose: 12.5 mg/kg/injection, schedule: Q01DX009 (ip), vehicle: saline with Tween-80 105 % of control | [7] 101 % of control | [4] 113 % of control and 120 % of control | [5] 119 % of control and 124 % of control

CC1=C(C(=O)Nc2cccc3ccccc23)C(c2cccc([N+](=O)[O-])c2)C(C(=O)Nc2cccc3ccccc23)=C(C)N1
inactive: dose: 7.5 mg/kg/injection, schedule: Q01DX005 (ip), vehicle: Klucel (hydroxypropylcellulose) (HPC) 100 % of control | dose: 15.0 mg/kg/injection, schedule: Q01DX005 (ip), vehicle: Klucel (hydroxypropylcellulose) (HPC) 100 % of control | dose: 30.0 mg/kg/injection, schedule: Q01DX005 (ip), vehicle: Klucel (hydroxypropylcellulose) (HPC) 103 % of control

COc1cccc2c1C(=O)c1c(O)c3c(c(O)c1C2=O)CC(O)(C(C)=O)CC3OC1CC(NC(=O)C(N)CCCCN)C(O)C(C)O1 (configuration not stated)
inactive: dose: 2.5 mg/kg/injection, schedule: Q04DX003 (ip), vehicle: water 101 % of control | dose: 5.0 mg/kg/injection, schedule: Q04DX003 (ip), vehicle: water 101 % of control and 103 % of control | dose: 10.0 mg/kg/injection, schedule: Q04DX003 (ip), vehicle: distilled water + Tween-80 95 % of control | dose: 10.0 mg/kg/injection, schedule: Q04DX003 (ip), vehicle: water 101 % of control and 109 % of control | dose: 20.0 mg/kg/injection, schedule: Q04DX003 (ip), vehicle: distilled water + Tween-80 96 % of control | dose: 20.0 mg/kg/injection, schedule: Q04DX003 (ip), vehicle: water 109 % of control and 118 % of control | dose: 40.0 mg/kg/injection, schedule: Q04DX003 (ip), vehicle: distilled water + Tween-80 105 % of control | dose: 40.0 mg/kg/injection, schedule: Q04DX003 (ip), vehicle: water 106 % of control and 122 % of control | dose: 80.0 mg/kg/injection, schedule: Q04DX003 (ip), vehicle: distilled water + Tween-80 112 % of control | dose: 80.0 mg/kg/injection, schedule: Q04DX003 (ip), vehicle: water 118 % of control

O=C(Oc1ccccc1)c1ccc([N+](=O)[O-])cc1
inactive: dose: 25.0 mg/kg/injection, schedule: Q01DX005 (ip), vehicle: Klucel (hydroxypropylcellulose) (HPC) 100 % of control | dose: 50.0 mg/kg/injection, schedule: Q01DX005 (ip), vehicle: Klucel (hydroxypropylcellulose) (HPC) 105 % of control | dose: 100.0 mg/kg/injection, schedule: Q01DX005 (ip), vehicle: Klucel (hydroxypropylcellulose) (HPC) 101 % of control | dose: 200.0 mg/kg/injection, schedule: Q01DX005 (ip), vehicle: Klucel (hydroxypropylcellulose) (HPC) 104 % of control

C[N+](C)(C)CCC[N+]1(C)CC2CCCCC2C1 (configuration not stated)
inactive: dose: 50.0 mg/kg/injection, schedule: Q01DX005 (ip), vehicle: saline 107 % of control | dose: 100.0 mg/kg/injection, schedule: Q01DX005 (ip), vehicle: saline 98 % of control | dose: 200.0 mg/kg/injection, schedule: Q01DX005 (ip), vehicle: saline 101 % of control

COc1ccc(/C=C(/C)[N+](=O)[O-])cc1OC
inactive: dose: 22.0 mg/kg/injection, schedule: Q01DX009 (ip), vehicle: saline with Tween-80 109 % of control | dose: 33.0 mg/kg/injection, schedule: Q01DX009 (ip), vehicle: saline with Tween-80 109 % of control | [4] 109 % of control | dose: 75.0 mg/kg/injection, schedule: Q01DX009 (ip), vehicle: saline with Tween-80 118 % of control | dose: 200.0 mg/kg/injection, schedule: Q01DX009 (ip), vehicle: saline 100 % of control

C1CCC(N2CCOCC2)CC1
inactive: [1] 99 % of control | [2] 117 % of control | [3] 100 % of control and 101 % of control

C1=NN2C3c4ccccc4C(C1)C32 (configuration not stated)
inactive: [16] 109 % of control | [17] 113 % of control

O=C(Oc1c(OC(=O)c2ccccc2)c(OC(=O)c2ccccc2)c(OC(=O)c2ccccc2)c(OC(=O)c2ccccc2)c1OC(=O)c1ccccc1)c1ccccc1
inactive: dose: 100.0 mg/kg/injection, schedule: Q04DX002 (ip), vehicle: saline with Tween-80 107 % of control | dose: 200.0 mg/kg/injection, schedule: Q04DX002 (ip), vehicle: saline with Tween-80 94 % of control | dose: 400.0 mg/kg/injection, schedule: Q04DX002 (ip), vehicle: saline with Tween-80 89 % of control
